Data as given in the NIST ThermoML archive (doi:10.1021/je060271a).
± gives the expanded uncertainty stated by the source.

Details: 323.14 K, Liquid, Vibrating tube method

Measured: mass density

CCCCCC(=O)OCC(COC(=O)CCCCC)(COC(=O)CCCCC)COC(=O)CCCCC [pentaerythritol tetrahexanoate]
976.2 ± 1.2 kg/m3: 4951.5 kPa | 4972.1 kPa | 5088.6 kPa | 5140.5 kPa | 5392.1 kPa
976.6 ± 1.2 kg/m3: 5499.7 kPa | 5555.5 kPa | 5581.3 kPa | 5695.8 kPa
976 ± 1.2 kg/m3: 4906.2 kPa
976.3 ± 1.2 kg/m3: 5114.4 kPa | 5162.3 kPa | 5212 kPa | 5233.9 kPa | 5261.4 kPa | 5289.1 kPa | 5313.2 kPa
977.2 ± 1.2 kg/m3: 6426.8 kPa | 6465.6 kPa | 6597.3 kPa | 6666.6 kPa
976.7 ± 1.2 kg/m3: 5659 kPa | 5678.8 kPa | 5715.8 kPa | 5733 kPa | 5749.7 kPa | 5769.6 kPa | 5786.4 kPa | 5823.9 kPa | 5844.1 kPa | 5899.3 kPa | 5920.4 kPa
979.4 ± 1.2 kg/m3: 9820.8 kPa | 9834.6 kPa | 9846 kPa | 9859.9 kPa
979.3 ± 1.2 kg/m3: 9720.5 kPa
978 ± 1.2 kg/m3: 7812.4 kPa
978.4 ± 1.2 kg/m3: 8237.7 kPa | 8292.8 kPa | 8348.5 kPa | 8410 kPa
979.5 ± 1.2 kg/m3: 9812.4 kPa
978.3 ± 1.2 kg/m3: 8267.6 kPa
976.1 ± 1.2 kg/m3: 4926.8 kPa | 4997.4 kPa | 5018.6 kPa | 5041 kPa | 5066.8 kPa
977.8 ± 1.2 kg/m3: 7194.3 kPa | 7273.9 kPa | 7326.7 kPa | 7351.7 kPa | 7381.1 kPa | 7460.9 kPa
976.9 ± 1.2 kg/m3: 6075.8 kPa | 6094.3 kPa | 6134 kPa
978.6 ± 1.2 kg/m3: 8525.2 kPa | 8584.2 kPa
978.9 ± 1.2 kg/m3: 8971.8 kPa | 8997.6 kPa | 9020.2 kPa | 9183.3 kPa | 9204.3 kPa | 9226.4 kPa
978.5 ± 1.2 kg/m3: 8323.1 kPa | 8379 kPa | 8436.3 kPa | 8466.9 kPa | 8498.7 kPa | 8557.3 kPa
977.6 ± 1.2 kg/m3: 7019.4 kPa | 7070.3 kPa | 7120.7 kPa | 7143.5 kPa | 7297.5 kPa
978.1 ± 1.2 kg/m3: 7784.6 kPa | 7839.9 kPa | 7863.3 kPa
977.7 ± 1.2 kg/m3: 7093.1 kPa | 7170.6 kPa | 7222.1 kPa | 7250.4 kPa
977.5 ± 1.2 kg/m3: 6825.5 kPa | 6851.4 kPa | 6873.7 kPa | 6899.4 kPa | 6921.3 kPa | 6947.4 kPa | 6973.7 kPa | 6995.9 kPa | 7043.5 kPa
976.4 ± 1.2 kg/m3: 5337.7 kPa | 5363.2 kPa | 5421.2 kPa | 5530.1 kPa
978.7 ± 1.2 kg/m3: 8617 kPa | 8645.1 kPa | 8678.7 kPa | 8712.2 kPa | 8775.3 kPa | 8907.8 kPa
977.3 ± 1.2 kg/m3: 6576.9 kPa | 6621.1 kPa | 6778.7 kPa | 6803.9 kPa
977.9 ± 1.2 kg/m3: 7573.4 kPa | 7631.6 kPa
977.4 ± 1.2 kg/m3: 6641.5 kPa | 6690.9 kPa | 6711.7 kPa | 6732.6 kPa | 6757.6 kPa
977 ± 1.2 kg/m3: 6036.5 kPa | 6054.3 kPa | 6196.6 kPa
979.1 ± 1.2 kg/m3: 9164.7 kPa
976.5 ± 1.2 kg/m3: 5184.8 kPa | 5445 kPa | 5469.8 kPa | 5611.7 kPa | 5635.4 kPa
979 ± 1.2 kg/m3: 9142.1 kPa
976.8 ± 1.2 kg/m3: 5806.6 kPa | 5861.2 kPa | 5882.2 kPa | 5941.5 kPa | 5959.1 kPa | 5976.7 kPa | 5997.6 kPa | 6015.1 kPa | 6115.5 kPa | 6155.6 kPa
977.1 ± 1.2 kg/m3: 6178.1 kPa | 6361.8 kPa | 6380.8 kPa | 6403.6 kPa | 6446.5 kPa | 6489.3 kPa
978.8 ± 1.2 kg/m3: 8740.6 kPa | 8805.1 kPa | 8840.3 kPa | 8877 kPa | 8944 kPa
